These compounds were tested against T1, Orai1/STIM1 (Homo sapiens, UniProt Q96D31) (assay: Fluorescence-based assay of store-operated calcium entry in Orai1/STIM1 stable cells). Settings: HEK-293 cells stably expressing human STIM1 and Orai1; Peak-Basal fluo-4 signal; Table iv; read-out: Orai1/STIM1 (IC50, μmol).
T1 construct: c-myc (C); expressed in transfected cells; host or cells: HEK-293 cells stably overexpressing human STIM1, stably transfected with pcDNA3.1-Orai1-cmyc
T1 sequence (Q96D31 whole entry): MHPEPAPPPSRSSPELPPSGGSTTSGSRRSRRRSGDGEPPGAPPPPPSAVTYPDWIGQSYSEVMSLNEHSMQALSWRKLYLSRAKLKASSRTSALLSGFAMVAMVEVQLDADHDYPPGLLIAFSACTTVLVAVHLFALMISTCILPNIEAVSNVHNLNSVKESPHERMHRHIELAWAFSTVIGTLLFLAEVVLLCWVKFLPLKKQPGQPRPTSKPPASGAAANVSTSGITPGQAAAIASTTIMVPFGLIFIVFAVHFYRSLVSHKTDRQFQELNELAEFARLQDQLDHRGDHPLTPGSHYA
Type: cell-based
Protocol: A. Fluorescence-based Assay of Store-Operated Calcium Entry in Orai1/STIM1 Stable Cells.
Cells stably expressing recombinant human STIM1 and Orai1 are generated by transfecting a human Orai1 expression plasmid (pcDNA3.1-Orai1-cmyc) into HEK-293 cells stably overexpressing human ST1M1 (Roos et al. 2005 JCB 169(3): 435-445). Colonies of cells stably expressing both STIM1 and Orai1 proteins are selected and then subcloned by limiting dilution. Cells were cultured at 37° C./6% CO2 in complete medium with 10% FBS and appropriate selection markers.
The day prior to performing the assay Orai1/STIM1 stable cells are plated in 50 μL of complete medium at 90-95% confluence in a 384 well plate. Cells are grown at 37° C./6% CO2 overnight. […] The initial baseline fluorescence signal is then measured with a FLIPR^384 (Molecular Devices) plate reader. Calcium entry is initiated by adding 5 μl of 10× CaCl2 (10 mM) in HBSS, and changes in cellular fluorescence are measured with the FLIPR^384 plate reader. In each well, the magnitude of the fluorescence signal as a result of calcium entry into the cell is determined by calculating the difference between the peak fluorescence signal measured after calcium addition and the initial baseline fluorescence signal (designated Peak-Basal). […]
An IC50 of 600 to 1200 nM was found for Cc1cccc(F)c1C(=O)Nc1ccc(-c2cc(-c3ccccc3F)nn2C)s1 [Compound 23] in this work.

Each compound was assayed on JR251 (assay: JR251 IC50 (Table v)). Settings: not given.
Type: cell-based
An IC50 of 1210 nM was found for C=Cn1nc(-c2nccs2)cc1-c1ccc(NC(=O)c2c(F)cccc2F)s1 [Compound 5, (2,6-difluorophenyl)-N-[5-(3-(1,3-thiazol-2-yl)-1-vinylpyrazol-5-yl](2-thienyl)] carboxamide] in this work.

These compounds were tested on RBL-2H3 cells (assay: Fluorescence-based assay of store-operated calcium entry in RBL-2H3 cells). Settings: Rattus norvegicus, Table v, read-out: IC50 (nM) RBL.
Type: cell-based
Protocol: B. Fluorescence-based Assay of Store-Operated Calcium Entry in RBL-2H3 Cells.
RBL-2H3 cells are obtained from ATCC and maintained in complete medium with 10% FBS at 37° C./6% CO2.
The day prior to performing the assay, RBL-2H3 cells are plated in 50 μL of complete medium in a 384 well plate. Cells are grown at 37° C./6% CO2 overnight and grow to 50-60% confluence by the next day. On the assay day, 1.5 μM Fluo-4-AM dye (Invitrogen) in complete medium is added and incubated for 1 hour at RT. Cells are washed twice in Ca^2+-free HBSS buffer and 35 μL Ca^2|-free HBSS buffer is added to each well. 10 μL of a test compound prepared in a Ca^2+-free HBSS solution at […] of the desired concentration is added to a well and incubated for 5 minutes at RT. 10 μL of thapsigargin prepared in a Ca^2+-free HBSS solution at 5.5× of the desired concentration (5.5 uM) is added to each well and incubated for an additional 25 minutes. The initial baseline fluorescence signal is measured with a FLIPR^384 (Molecular Devices) plate reader. 5 μL of 12× calcium in HBSS (12 mM) is added and changes in cellular fluorescence arc measured with the FLIPR^384 plate reader. In each well, the change in the fluorescent signal as a function of time due to calcium entry into the cell is determined by calculating the difference between the fluorescent signal measured 7 seconds after calcium addition and the initial baseline fluorescence signal at time zero (t=0). This parameter is designated Upslope. The IC50 value is calculated as the concentration at which 50% of the Upslope is inhibited.
An IC50 of 106 nM was found for C=Cn1nc(-c2nccs2)cc1-c1ccc(NC(=O)c2c(F)cccc2F)s1 [Compound 5, (2,6-difluorophenyl)-N-[5-(3-(1,3-thiazol-2-yl)-1-vinylpyrazol-5-yl](2-thienyl)] carboxamide] in this work.

Same assay, conditions: Rattus norvegicus, thapsigargin, Upslope of fluo-4 signal, Table iii, read-out: RBL-2H3 (IC50, μmol)
An IC50 of under 600 nM was found for Cc1oc(C(F)(F)F)nc1-c1ccc(NC(=O)c2c(F)cccc2F)nc1 [Compound 14, 2,6-difluoro-N-(5-(5-methyl-2-(trifluoromethyl)oxazol-4-yl)pyridin-2-yl)benzamide] in this work.
An IC50 of under 600 nM was found for Cc1ccccc1C(=O)Nc1ccc(-c2nc(C(F)(F)F)oc2C)cn1 [Compound 15] in this work.
An IC50 of under 600 nM was found for Cc1oc(C(F)(F)F)nc1-c1ccc(NC(=O)c2ccccc2F)nc1 [Compound 16] in this work.
An IC50 of under 600 nM was found for Cc1oc(C(F)(F)F)nc1-c1ccc(NC(=O)c2c(F)cncc2F)nc1 [Compound 17, 3,5-difluoro-N-(5-(5-methyl-2-(trifluoromethyl)oxazol-4-yl)pyridin-2-yl)isonicotinamide] in this work.
An IC50 of under 600 nM was found for Cc1oc(C(F)(F)F)nc1-c1ccc(NC(=O)c2cccc(F)c2C)nc1 [Compound 19, 3-fluoro-2-methyl-N-(5-(5-methyl-2-(trifluoromethyl)oxazol-4-yl)pyridin-2-yl)benzamide] in this work.
An IC50 of under 600 nM was found for CCc1oc(C(F)(F)F)nc1-c1ccc(NC(=O)c2ccccc2F)nc1 [Compound 24, N-(5-(5-ethyl-2-(trifluoromethyl)oxazol-4-yl)pyridin-2-yl)-2-fluorobenzamide] in this work.
An IC50 of under 600 nM was found for CCc1oc(C(F)(F)F)nc1-c1ccc(NC(=O)c2c(F)cccc2F)nc1 [Compound 25, N-(5-(5-ethyl-2-(trifluoromethyl)oxazol-4-yl)pyridin-2-yl)-2,6-difluorobenzamide] in this work.

Same assay, conditions: Rattus norvegicus, thapsigargin, Upslope of fluo-4 signal, Table iv, read-out: RBL-2H3 (IC50, μmol)
An IC50 of under 600 nM was found for Cn1nc(-c2nccs2)cc1-c1ccc(NC(=O)c2c(F)cccc2F)s1 [Compound 6, (2,6-difluorophenyl)-N-[5-[1-methyl-3-(1,3-thiazol-2-yl)pyrazol-5-yl](2-thienyl)] carboxamide] in this work.
An IC50 of under 600 nM was found for Cn1nc(-c2nccs2)cc1-c1ccc(NC(=O)c2ccc(F)cc2F)s1 [Compound 7, (2,4-difluorophenyl)-N-[5-[1-methyl-3-(1,3-thiazol-2-yl)pyrazol-5-yl](2-thienyl)] carboxamide] in this work.
An IC50 of under 600 nM was found for Cn1nc(-c2nccs2)cc1-c1ccc(NC(=O)c2c(F)cc(F)cc2F)s1 [Compound 10, (2,4,6-trifluorophenyl)-N-[5-[1-methyl-3-(1,3-thiazol-2-yl)pyrazol-5-yl](2-thienyl)] carboxamide] in this work.
An IC50 of under 600 nM was found for CCn1nc(-c2nccs2)cc1-c1ccc(NC(=O)c2c(F)cccc2F)s1 [Compound 15] in this work.
An IC50 of under 600 nM was found for CCn1nc(-c2nccs2)cc1-c1ccc(NC(=O)c2c(F)cc(F)cc2F)s1 [Compound 16] in this work.
An IC50 of under 600 nM was found for Cc1cccc(F)c1C(=O)Nc1ccc(-c2cc(-c3ccccc3F)nn2C)s1 [Compound 23] in this work.
An IC50 of under 600 nM was found for Cn1nc(-c2ccccn2)cc1-c1ccc(NC(=O)c2c(F)cc(F)cc2F)s1 [Compound 27, 2,4,6-trifluoro-N-(5-(1-methyl-3-(pyridin-2-yl)-1H-pyrazol-5-yl)thiophen-2-yl)benzamide] in this work.
An IC50 of under 600 nM was found for Cn1nc(-c2ccccn2)cc1-c1ccc(NC(=O)c2c(F)cccc2F)s1 [Compound 28, 2,6-difluoro-N-(5-(1-methyl-3-(pyridin-2-yl)-1H-pyrazol-5-yl)thiophen-2-yl)benzamide] in this work.

Source: US20170044152A1, “COMPOUNDS THAT MODULATE INTRACELLULAR CALCIUM” (CalciMedica, Inc., priority 2012, published 2017)
